{
  "source": "paper PMC11674187",
  "about": "“Inhibitory Effects of Cenobamate on Multiple Human Cardiac Ion Channels and Possible Arrhythmogenic Consequences” (Biomolecules, 2024)",
  "key": {"[1]": {"molecular_target": "T1, hNav1.5 (Homo sapiens, UniProt Q14524)", "T1 construct": "host or cells: HEK293T", "T1 sequence (Q14524 whole entry, canonical isoform)": "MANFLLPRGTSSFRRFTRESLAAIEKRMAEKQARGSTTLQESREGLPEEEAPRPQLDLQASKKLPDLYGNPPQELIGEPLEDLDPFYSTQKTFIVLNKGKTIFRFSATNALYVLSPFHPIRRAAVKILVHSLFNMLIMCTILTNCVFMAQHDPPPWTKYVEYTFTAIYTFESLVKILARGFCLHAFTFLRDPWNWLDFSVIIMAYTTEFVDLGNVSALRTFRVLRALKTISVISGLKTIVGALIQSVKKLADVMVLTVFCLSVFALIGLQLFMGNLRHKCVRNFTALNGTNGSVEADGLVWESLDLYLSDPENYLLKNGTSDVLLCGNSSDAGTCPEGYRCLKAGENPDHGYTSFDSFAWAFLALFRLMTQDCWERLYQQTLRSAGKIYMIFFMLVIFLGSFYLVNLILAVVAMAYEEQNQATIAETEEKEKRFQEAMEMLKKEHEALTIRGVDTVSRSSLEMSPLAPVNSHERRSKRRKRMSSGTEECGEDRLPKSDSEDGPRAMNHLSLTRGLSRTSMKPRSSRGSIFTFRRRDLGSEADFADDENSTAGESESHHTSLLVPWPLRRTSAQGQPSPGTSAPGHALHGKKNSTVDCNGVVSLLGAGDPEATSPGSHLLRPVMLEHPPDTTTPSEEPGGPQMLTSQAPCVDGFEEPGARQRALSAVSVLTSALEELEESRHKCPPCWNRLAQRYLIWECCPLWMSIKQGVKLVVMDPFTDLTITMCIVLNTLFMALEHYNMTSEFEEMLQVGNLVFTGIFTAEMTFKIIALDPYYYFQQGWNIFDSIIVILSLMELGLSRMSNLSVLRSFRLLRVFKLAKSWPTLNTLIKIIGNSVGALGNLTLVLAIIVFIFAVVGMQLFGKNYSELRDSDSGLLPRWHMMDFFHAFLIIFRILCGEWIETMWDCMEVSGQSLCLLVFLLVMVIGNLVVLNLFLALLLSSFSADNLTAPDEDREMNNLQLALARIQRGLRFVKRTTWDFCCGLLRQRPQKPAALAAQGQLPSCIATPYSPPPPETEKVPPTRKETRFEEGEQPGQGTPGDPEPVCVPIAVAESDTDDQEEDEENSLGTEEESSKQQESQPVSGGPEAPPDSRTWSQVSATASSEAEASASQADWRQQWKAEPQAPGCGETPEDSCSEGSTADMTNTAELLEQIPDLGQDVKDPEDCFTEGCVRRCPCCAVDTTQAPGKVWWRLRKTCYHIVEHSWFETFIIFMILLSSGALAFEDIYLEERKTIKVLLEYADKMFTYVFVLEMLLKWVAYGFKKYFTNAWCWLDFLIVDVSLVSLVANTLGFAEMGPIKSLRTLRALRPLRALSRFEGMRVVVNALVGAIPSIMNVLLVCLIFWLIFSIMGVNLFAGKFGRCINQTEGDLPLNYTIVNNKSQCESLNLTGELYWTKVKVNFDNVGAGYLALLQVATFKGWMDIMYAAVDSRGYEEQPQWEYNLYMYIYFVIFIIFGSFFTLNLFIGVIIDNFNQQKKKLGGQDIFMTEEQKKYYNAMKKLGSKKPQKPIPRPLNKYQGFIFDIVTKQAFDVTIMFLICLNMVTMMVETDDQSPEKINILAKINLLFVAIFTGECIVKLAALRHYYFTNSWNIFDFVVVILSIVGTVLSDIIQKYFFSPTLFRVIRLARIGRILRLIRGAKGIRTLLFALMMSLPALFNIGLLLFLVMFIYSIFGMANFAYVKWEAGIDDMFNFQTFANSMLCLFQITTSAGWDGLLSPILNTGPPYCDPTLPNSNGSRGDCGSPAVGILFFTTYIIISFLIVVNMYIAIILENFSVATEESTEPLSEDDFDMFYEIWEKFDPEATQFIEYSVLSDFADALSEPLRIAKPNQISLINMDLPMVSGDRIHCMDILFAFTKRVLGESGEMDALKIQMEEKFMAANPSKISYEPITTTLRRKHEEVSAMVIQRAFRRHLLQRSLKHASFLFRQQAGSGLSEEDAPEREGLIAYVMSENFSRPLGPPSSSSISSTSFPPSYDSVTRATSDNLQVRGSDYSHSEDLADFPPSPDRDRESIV", "experiment": "Whole-cell patch-clamp on HEK293T cells, peak INa (standard, activation and inactivation protocols)", "format": "cell-based", "procedure": "Experiments were performed on HEK293T cell lines with persistent/inducible expression of different human cardiac ion channel isoforms: hNav1.5 and hKv7.1 + minK (Anaxon AG, Bern, Switzerland), hCav1.2 (α1c + β2 + α2δ1) (B’SYS GmbH, Witterswil, Switzerland), and hKv11.1 (hERG) (Cytocentrics Bioscience GmbH, Rostock, Germany). The cell lines were grown in standard conditions (37 °C, 5% CO2, 90% humidity) in DMEM:F12 medium (D8900, Sigma-Aldrich, Burlington, MA, USA) buffered with 15 mM HEPES, containing 3.15 g/L D-glucose and 0.055 g/L sodium pyruvate, supplemented with 1.2 g/L sodium bicarbonate, 10% fetal bovine serum (F2442, Sigma-Aldrich, Burlington, MA, USA), 2 mM L-glutamine (G7513, Sigma-Aldrich, Burlington, MA, USA), 1% penicillin–streptomycin (P4333, Sigma-Aldrich, Burlington, MA, USA), and with specific antibiotics for selection of transfected cells or induction of gene expression according to manufacturers’ instructions. The medium was changed every 2–3 days and the cells were passed weekly upon detachment with trypsin–EDTA solution. All cell culture media and solutions were sterile filtered with 0.22 μm polyvinylidene fluoride filters. Ncyte® vCardiomyocytes (Ncardia, Leiden, The Netherlands) were cultured in 24-well plates precoated with bovine fibronectin, following manufacturer’s instructions. For the experiments, cardiomyocytes were detached as described previously and plated on ϕ 10 mm glass coverslips, like the other cell lines.\nManual whole-cell patch-clamp experiments were performed at room temperature, with equipment as described in previous studies. Pipettes were pulled from Clark borosilicate glass capillaries with inner filament (GC150F-10, Harvard Apparatus, Holliston, MA, USA) and had typical resistances of 2–3 MΩ. Recordings were performed with a WPC-100 resistive feedback amplifier (ESF electronic, Göttingen, Germany) or an Axopatch 200B amplifier (Axon Instruments—Molecular Devices, San Jose, CA, USA) connected to a Digidata 1322A interface driven by the pClamp 8.2 Clampex module (Axon Instruments, part of Molecular Devices, San Jose, CA, USA). For different types of ion channel, we applied specific voltage-clamp protocols as follows: • - For hERG, a standard two-step activation protocol was used: holding at −70 mV, a 100 ms step at −50 mV used as current reference for measurements, a 2 s depolarizing step at +40 mV, followed by a 2 s step at −50 mV to elicit the peak hERG current by rapid recovery from inactivation, repeated sweeps at 10 s intervals, plus specific protocols to assess the voltage dependence of activation and inactivation, as described in Thomet et al., 2021 [11]. • - For hKv7.1 + minK, a general two-step activation protocol was used: holding at −110 mV, a 250 ms step at −80 mV with a brief (50 ms) step at −90 mV at the middle to monitor seal quality, a 3000 ms depolarizing step at +60 mV, followed by a 1000 ms step at −50 mV; repeated sweeps at 20 s intervals. • - For hCav1.2, a pharmacology protocol with holding at −80 mV, a first 100 ms step at −50 mV and a second 200 ms step at 0 mV, repeated sweeps at 20 s intervals with drug application after 5 sweeps if current levels were steady, plus an activation–inactivation protocol with holding at −80 mV, 1000 ms depolarizing steps from −80 to +50 mV in 10 mV increments, followed by 250 ms steps at +10 mV and a return to −80 mV; 14 sweeps at 20 s intervals. • - For hNav1.5, multiple voltage protocols were used, including the following: • - A standard pharmacology protocol with holding at −90 mV, a 20 ms step at −110 mV for seal monitoring, a 40 ms activation step at −10 mV, and repeated sweeps at 1 s intervals. […]"}, "[2]": {"test_system": "hNav1.7", "design": "method as in ref [5] p. 8", "details": "hNav1.7 in HEK293 cells, ref [5] p. 8, cited from earlier work"}, "[3]": {"design": "method as in PMID 33031714", "details": "adults with focal onset seizures; ref [2]; cited from earlier work"}, "[4]": {"test_system": "IKr (hERG)", "details": "read-out: apparent IC50 for IKr (hERG); used for further computations; ref [5] p. 10; cited from earlier work"}, "[5]": {"details": "cited from earlier work"}, "[6]": {"details": "cited from earlier work; for healthy volunteers with QT interval shortening greater than 20 ms: study YKP3089C020, ref [9] p. 11"}},
  "note": "Several values for one entry are separate records, joined by “and”; a condition that tells them apart may be missing. Identical values can stand only once. Like-named read-outs stand apart in the source and are kept apart here.",
  "data": [
    {"smiles": "NC(=O)O[C@@H](Cn1ncnn1)c1ccccc1Cl", "note": "[cenobamate]", "values": [
      {"measurement": "inhibition at 10 µM", "setting": "[1]; HEK-293T, cenobamate 10 µM, read-out: % INa inhibition (peak), mean (Table S2)", "value": 8.6, "unit": "%"},
      {"measurement": "inhibition at 10 µM", "setting": "[1]; HEK-293T, cenobamate 10 µM, read-out: % INa inhibition (peak), single experiments (Table S2)", "value": 8.58, "unit": "%"},
      {"measurement": "inhibition at 40 µM", "setting": "[1]; HEK-293T, cenobamate 40 µM, read-out: % INa inhibition (peak), mean (Table S2)", "value": 37.7, "unit": "%"},
      {"measurement": "inhibition at 100 µM", "setting": "[1]; HEK-293T, cenobamate 100 µM, read-out: % INa inhibition (peak), mean (Table S2)", "value": 49, "unit": "%"},
      {"measurement": "inhibition at 100 µM", "setting": "[1]; HEK-293T, cenobamate 100 µM, read-out: % INa inhibition (peak), single experiments (Table S2)", "value": 52.7, "unit": "%"},
      {"measurement": "inhibition at 200 µM", "setting": "[1]; HEK-293T, cenobamate 200 µM, read-out: % INa inhibition (peak), mean (Table S2)", "value": 69.9, "unit": "%"},
      {"measurement": "inhibition at 200 µM", "setting": "[1]; HEK-293T, cenobamate 200 µM, standard protocol, step at -10 mV, initial set, mean (SD), n = 6, read-out: average inhibition of peak INa", "value": 69.5, "unit": "%"},
      {"measurement": "inhibition at 1000 µM", "setting": "[1]; HEK-293T, cenobamate 1000 µM, read-out: % INa inhibition (peak), mean (Table S2)", "value": 89.3, "unit": "%"},
      {"measurement": "inhibition at 1000 µM", "setting": "[1]; HEK-293T, cenobamate 1000 µM, read-out: % INa inhibition (peak), single experiments (Table S2)", "value": 89.6, "unit": "%"},
      {"measurement": "IC50", "setting": "[1]; INaIC50 (model script), value entered in C++ script", "value": 87.6, "unit": "µM"},
      {"measurement": "IC50", "setting": "[1]; apparent IC50 for peak INa inhibition, Hill coefficient nH = 1, room temperature", "value": "87.6 µM and < 100 µM"},
      {"measurement": "% INa inhibition (peak), single experiments (Table S2)", "setting": "[1]; cenobamate 10 µM", "value": "9.79% and 10.02% and 5.97%"},
      {"measurement": "% INa inhibition (peak), single experiments (Table S2)", "setting": "[1]; cenobamate 40 µM", "value": "36.42% and 24.23% and 44.79% and 44.54% and 38.53%"},
      {"measurement": "% INa inhibition (peak), single experiments (Table S2)", "setting": "[1]; cenobamate 100 µM", "value": "51.80% and 49.36% and 42.07%"},
      {"measurement": "% INa inhibition (peak), single experiments (Table S2)", "setting": "[1]; cenobamate 200 µM", "value": "64.55% and 87.37% and 54.65% and 52.32% and 72.86%"},
      {"measurement": "voltage shifts of voltage dependence of activation and steady-state inactivation", "setting": "[1]; cenobamate 200 µM, both activation and inactivation", "value": "> 10", "unit": "mV"},
      {"measurement": "voltage dependence of peak INa inhibition", "setting": "[1]; cenobamate 200 µM, multiple depolarizing steps", "value": "virtually voltage-independent"},
      {"measurement": "average inhibition of peak INa", "setting": "[1]; cenobamate 200 µM, standard protocol, step at -10 mV, initial set, mean (SD), n = 6", "value": "69.53 ± 14.63", "unit": "%"},
      {"measurement": "% INa inhibition, single experiments (Table S1)", "setting": "[1]; cenobamate 200 µM, step at -10 mV", "value": "56.27% and 68.71% and 86.95% and 54.87% and 87.66% and 62.74%"},
      {"measurement": "% INa inhibition (peak), single experiments (Table S2)", "setting": "[1]; cenobamate 1000 µM", "value": "91.76% and 89.36% and 86.34%"},
      {"measurement": "IC50", "setting": "[2]; read-out: IC50 on late (persistent) INa", "value": 41.8, "unit": "µM"},
      {"measurement": "IC50", "setting": "[2]; read-out: estimated IC50 on peak (transient) Na+ current", "value": "> 500", "unit": "µM"},
      {"measurement": "reduction in monthly seizure frequency", "setting": "[3]", "value": "up to 55%"},
      {"measurement": "seizure-free rates", "setting": "[3]", "value": "up to 28%"},
      {"measurement": "IC50", "setting": "[4]", "value": 1870, "unit": "µM"},
      {"measurement": "protein binding", "setting": "[5]; human, ref [5] p.10", "value": 61.0, "unit": "%"},
      {"measurement": "average binding to plasma proteins", "setting": "[5]; study YKP3089C018, ref [5] p. 13", "value": "~ 60% and 60%"},
      {"measurement": "healthy volunteers with QT interval shortening greater than 20 ms", "setting": "[6]; 200 mg oral dose, 6–17% with placebo", "value": 31, "unit": "%"},
      {"measurement": "healthy volunteers with QT interval shortening greater than 20 ms", "setting": "[6]; 500 mg", "value": 66, "unit": "%"},
      {"measurement": "QTc interval shortening", "setting": "[6]; ref [9] pp. 11–12", "value": "> 20", "unit": "ms"},
      {"measurement": "QTc interval under cenobamate (not below)", "setting": "[6]; ref [9] pp. 11–12", "value": "≥ 300", "unit": "ms"}
    ]}
  ]
}
